Measurements taken from patent US20200115353A1, “NEW COMPOUNDS INHIBITORS OF THE YAP/TAZ-TEAD INTERACTION AND THEIR USE IN THE TREATMENT OF MALIGNANT MESOTHELIOMA” (INVENTIVA, priority 2017, published 2020).

target: T1, YAP-TEAD interaction (full length human TEAD1-Gal4 fusion, full length YAP mutant S127A, S397A) (UniProt P04386+P28347); experiment: Cell-based TEAD-GAL4 transactivation assay (luciferase reporter, HEK293); details: HEK293 cells, compounds 0.1 μM to 30 μM, 24 h, concentration that inhibited the luciferase activity by 50%
T1 construct: The TEAD1 construct was prepared by cloning the full length human TEAD1 cDNA; expressed in transfected cells; host or cells: HEK293 GripTite 293 MSR (Invitrogen R795-07), transiently transfected with pSG5_CMV plasmids
T1 sequence (P04386+P28347 fused, stated change not applied): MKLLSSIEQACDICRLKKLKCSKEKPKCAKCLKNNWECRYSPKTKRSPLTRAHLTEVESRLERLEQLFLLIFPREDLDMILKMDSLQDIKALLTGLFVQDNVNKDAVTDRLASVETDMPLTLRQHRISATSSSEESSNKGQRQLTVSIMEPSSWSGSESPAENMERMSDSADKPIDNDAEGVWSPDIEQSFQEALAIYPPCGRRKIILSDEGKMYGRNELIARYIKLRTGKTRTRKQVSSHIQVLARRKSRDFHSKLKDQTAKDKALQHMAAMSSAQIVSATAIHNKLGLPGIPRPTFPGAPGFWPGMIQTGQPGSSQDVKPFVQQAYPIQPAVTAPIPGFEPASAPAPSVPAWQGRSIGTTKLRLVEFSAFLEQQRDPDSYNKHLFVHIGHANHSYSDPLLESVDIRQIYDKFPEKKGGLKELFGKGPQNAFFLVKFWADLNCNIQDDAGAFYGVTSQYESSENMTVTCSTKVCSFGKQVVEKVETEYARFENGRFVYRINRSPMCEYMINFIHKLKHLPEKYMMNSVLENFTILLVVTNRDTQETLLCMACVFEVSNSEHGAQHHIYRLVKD
Procedure: To identify inhibitors of YAP-TEAD interaction, a transient transactivation assays was carried out into HEK293 cell line (HEK293 GripTite™ 293 MSR (Invitrogen R795-07)) using plasmids containing the full length TEAD1 sequences, the full length YAP mutant (S127A, S397A) and a luciferase gene reporter. All expression constructs were performed into pSG5 backbone plasmid in which the SV40 promoter was replaced by the CMV promoter. The TEAD1 construct was prepared by cloning the full length human TEAD1 cDNA in fusion with the Gal4 DNA Binding Domain (AA 1-148) into pSG5_CMV to create the TEAD1(FL)_hum_pSG5Gal4_CMV. The full length YAP mutant (S127A, S397A) was also cloned into pSG_5 CMV to create the YAP(FL)_hum_pSG5_[…]. The reporter plasmid GAL4(5×RE)_[…]_pGL3-Basic contains 5 copies of the GAL4 responsive element (5′-TCGGAGGACAGTACTCC-3′) upstream of the thymidine kinase (TK) promoter (−105/+56) inserted in a pGL3-Basic vector. To evaluate the selectivity of our compounds in blocking the YAP-TEAD interaction, a counter-screening protein-protein interaction transactivation assays was also established. Briefly, two other expression plasmids, the pBD-P53 which express the P53 (AA 72-390) in fusion with Gal4 and the pAD-SV40T which express the SV40 large T antigen (AA 84-708,AgT), were created. HEK293 cells were seeded at 5×10^4 cells/well in 96 well plates (assay plates) in DMEM medium containing 4.5 g/L D-glucose, 10% high inactivated (HI) fetal bovine serum 1% Glutamax, 1% non-essential amino acid and 1% sodium pyruvate and 0.5% penicillin/streptomycin 37° C. in a humidified atmosphere of 8% CO2. After 24 h, transfections are performed using Jet-PEI as transfectant (101B-010 Polyplus Transfection), according to the instructions of the manufacturer (N/P=10) and a ratio YAP/TEAD=10 (per well: 50 ng of YAP(FL), 5 ng of TEAD(FL) and 50 ng of reporter plasmid). Six hours after cell transfection, the plates (‘assay plate’) were washed with 100 μl PBS per well and cell were treated with compounds in semi-log from 0.1 μM to 30 μM or DMSO 0.5% as control in DMEM 4.5 g/L D-Glucose without phenol red, 0.3% BSA, 1% glutamax, 1% NEAA, 1% sodium pyruvate. Twenty-four hours later, the luciferase activity was determined after addition of 100 μl of Steady Glo™ luciferase assay system (Promega E2550) according to the manufacturer's directions. Luciferase activity in cell extracts is measured by reading luminescence using the Envision device.
The cellular response was determined by fitting the concentration response curves using a 3-parameter curve fit equation and determining the concentration that inhibited the luciferase activity by 50%.

Point of comparison: “3,3-diethyl-5-[(E)-[isobutyl-(5-methoxy-1,1-dioxo-1,2-benzothiazol-3-yl)hydrazono]methyl]indolin-2-one [Ex 101]”, IC50 5.29 µM. Against it:
- CN(/N=C/c1cccc(OCCO)c1)C1=NS(=O)(=O)c2ccccc21 [Ex 2, 2-[3-[(E)-[(1,1-dioxo-1,2-benzothiazol-3-yl)-methyl-hydrazono]methyl]phenoxy]ethanol] — 4.8-fold lower, 1.11 µM
- CN(/N=C/c1cccc(N(C)C)c1)C1=NS(=O)(=O)c2ccccc21 [Ex 4, N-[(E)-[3-(dimethylamino)phenyl]methyleneamino]-N-methyl-1,1-dioxo-1,2-benzothiazol-3-amine] — 2.2-fold higher, 11.9 µM
- CN(/N=C/c1cnc(N2CCCC2)s1)C1=NS(=O)(=O)c2ccccc21 [Ex 6, N-methyl-1,1-dioxo-N-[(E)-(2-pyrrolidin-1-ylthiazol-5-yl)methyleneamino]-1,2-benzothiazol-3-amine] — 4.9-fold lower, 1.07 µM
- CN(/N=C/c1cnc(-c2ccccc2)s1)C1=NS(=O)(=O)c2ccccc21 [Ex 8, N-methyl-1,1-dioxo-N-[(E)-(2-phenylthiazol-5-yl)methyleneamino]-1,2-benzothiazol-3-amine] — within 1.5-fold, 5.19 µM
- COc1cc(/C=N/N(CCc2ccccn2)C2=NS(=O)(=O)c3ccccc32)ccc1F [Ex 9, N-[(E)-(4-fluoro-3-methoxy-phenyl)methyleneamino]-1,1-dioxo-N-[2-(2-pyridyl)ethyl]-1,2-benzothiazol-3-amine] — within 1.5-fold, 3.94 µM
- CCOc1cc(/C=N/N(C)C2=NS(=O)(=O)c3ccccc32)ccc1F [Ex 11, N-[(E)-(3-ethoxy-4-fluoro-phenyl)methyleneamino]-N-methyl-1,1-dioxo-1,2-benzothiazol-3-amine] — 1.9-fold lower, 2.85 µM
- CCCOc1cc(/C=N/N(C)C2=NS(=O)(=O)c3ccccc32)ccc1F [Ex 12, N-[(E)-(4-fluoro-3-propoxy-phenyl)methyleneamino]-N-methyl-1,1-dioxo-1,2-benzothiazol-3-amine] — 3.4-fold lower, 1.56 µM
- CC(C)Oc1cc(/C=N/N(C)C2=NS(=O)(=O)c3ccccc32)ccc1F [Ex 13, N-[(E)-(4-fluoro-3-isopropoxy-phenyl)methyleneamino]-N-methyl-1,1-dioxo-1,2-benzothiazol-3-amine] — 1.6-fold lower, 3.35 µM
- CN(/N=C/c1ccc(F)c(C(N)=O)c1)C1=NS(=O)(=O)c2ccccc21 [Ex 17, 5-[(E)-[(1,1-dioxo-1,2-benzothiazol-3-yl)-methyl-hydrazono]methyl]-2-fluoro-benzamide] — 1.9-fold lower, 2.75 µM
- CC(C)n1c(=O)[nH]c2ccc(/C=N/N(C)C3=NS(=O)(=O)c4ccccc43)cc21 [Ex 26, 5-[(E)-[(1,1-dioxo-1,2-benzothiazol-3-yl)-methyl-hydrazono]methyl]-3-isopropyl-1H-benzimidazol-2-one] — 8.5-fold lower, 0.62 µM
- CN(/N=C/c1ccc2[nH]c(=O)n(C3CC3)c2c1)C1=NS(=O)(=O)c2ccccc21 [Ex 27, 3-cyclopropyl-5-[(E)-[(1,1-dioxo-1,2-benzothiazol-3-yl)-methyl-hydrazono]methyl]-1H-benzimidazol-2-one] — 1.8-fold lower, 2.92 µM
- COc1cc(/C=N/N(CC(C)C)C2=NS(=O)(=O)c3ccccc32)ccc1F [Ex 40, N-[(E)-(4-fluoro-3-methoxy-phenyl)methyleneamino]-N-isobutyl-1,1-dioxo-1,2-benzothiazol-3-amine] — within 1.5-fold, 5.33 µM
- CCOCCN(/N=C/c1ccc(F)c(OC)c1)C1=NS(=O)(=O)c2ccccc21 [Ex 43, N-(2-ethoxyethyl)-N-[(E)-(4-fluoro-3-methoxy-phenyl)methyleneamino]-1,1-dioxo-1,2-benzothiazol-3-amine] — 1.9-fold lower, 2.78 µM
- COc1cc(/C=N/N(C)C2=NS(=O)(=O)c3ccc([N+](=O)[O-])cc32)ccc1F [Ex 47, N-[(E)-(4-fluoro-3-methoxy-phenyl)methyleneamino]-N-methyl-5-nitro-1,1-dioxo-1,2-benzothiazol-3-amine] — 1.6-fold lower, 3.4 µM
- COc1cc(/C=N/N(C)C2=NS(=O)(=O)c3cc(N)ccc32)ccc1F [Ex 49, N3-[(E)-(4-fluoro-3-methoxy-phenyl)methyleneamino]-N3-methyl-1,1-dioxo-1,2-benzothiazole-3,6-diamine] — 1.7-fold lower, 3.11 µM
- COc1cc(/C=N/N(C)C2=NS(=O)(=O)c3ccc(OCCN(C)C)cc32)ccc1F [Ex 57, 5-[2-(dimethylamino)ethoxy]-N-[(E)-(4-fluoro-3-methoxy-phenyl)methyleneamino]-N-methyl-1,1-dioxo-1,2-benzothiazol-3-amine] — 10-fold lower, 0.53 µM
- COc1cc(/C=N/N(C)C2=NS(=O)(=O)c3ccc(OCC(=O)N(C)C)cc32)ccc1F [Ex 58, 2-[[3-[[(E)-(4-fluoro-3-methoxy-phenyl)methyleneamino]-methyl-amino]-1,1-dioxo-1,2-benzothiazol-5-yl]oxy]-N,N-dimethyl-acetamide] — 1.5-fold lower, 3.42 µM
- COc1cc(/C=N/N(C)C2=NS(=O)(=O)c3cc(B4OCC(C)(C)CO4)ccc32)ccc1F [Ex 59, 6-(5,5-dimethyl-1,3,2-dioxaborinan-2-yl)-N-[(E)-(4-fluoro-3-methoxy-phenyl)methyleneamino]-N-methyl-1,1-dioxo-1,2-benzothiazol-3-amine] — within 1.5-fold, 3.55 µM
- CCN(/N=C/c1ccc(F)c(OC)c1)C1=NS(=O)(=O)c2cc(B(O)O)ccc21 [Ex 62, [3-[ethyl-[(E)-(4-fluoro-3-methoxy-phenyl)methyleneamino]amino]-1,1-dioxo-1,2-benzothiazol-6-yl]boronic acid] — 2.7-fold lower, 1.98 µM
- COc1cc(/C=N/N(CC(C)C)C2=NS(=O)(=O)c3cc(B(O)O)ccc32)ccc1F [Ex 63, [3-[[(E)-(4-fluoro-3-methoxy-phenyl)methyleneamino]-isobutyl-amino]-1,1-dioxo-1,2-benzothiazol-6-yl]boronic acid] — 4.9-fold lower, 1.08 µM
- CC(C)CN(/N=C/c1ccc2[nH]c(=O)n(C)c2c1)C1=NS(=O)(=O)c2cc(B(O)O)ccc21 [Ex 65, [3-[isobutyl-[(E)-(3-methyl-2-oxo-1H-benzimidazol-5-yl)methyleneamino]amino]-1,1-dioxo-1,2-benzothiazol-6-yl]boronic acid] — within 1.5-fold, 4.04 µM
- COc1cc(/C=N/N(CC(C)C)C2=NS(=O)(=O)c3cc(B4OC(=O)CN(C)CC(=O)O4)ccc32)ccc1F [Ex 69, 2-[3-[[(E)-(4-fluoro-3-methoxy-phenyl)methyleneamino]-isobutyl-amino]-1,1-dioxo-1,2-benzothiazol-6-yl]-6-methyl-1,3,6,2-dioxazaborocane-4,8-dione] — 5.1-fold lower, 1.04 µM
- Cc1ccc2c(c1)C(N(C)/N=C/c1ccc3[nH]c(=O)n(C)c3c1)=NS2(=O)=O [Ex 70, 3-methyl-5-[(E)-[methyl-(5-methyl-1,1-dioxo-1,2-benzothiazol-3-yl) hydrazono]methyl]-1H-benzimidazol-2-one] — 3.3-fold lower, 1.58 µM
- COc1cc(/C=N/N(CC2CCC2)C2=NS(=O)(=O)c3cc(B(O)O)ccc32)ccc1F [Ex 80, [3-[cyclobutylmethyl-[(E)-(4-fluoro-3-methoxy-phenyl)methyleneamino]amino]-1,1-dioxo-1,2-benzothiazol-6-yl]boronic acid] — 4.9-fold lower, 1.07 µM
- CCn1c(=O)[nH]c2ccc(/C=N/N(CC(C)C)C3=NS(=O)(=O)c4cc(B(O)O)ccc43)cc21 [Ex 84, [3-[[(E)-(3-ethyl-2-oxo-1H-benzimidazol-5-yl)methyleneamino]-isobutyl-amino]-1,1-dioxo-1,2-benzothiazol-6-yl]boronic acid] — 3.2-fold lower, 1.67 µM

same assay, conditions: HEK293 cells, compounds 0.1 μM to 30 μM, 24 h, luciferase activity

With “3,3-diethyl-5-[(E)-[isobutyl-(5-methoxy-1,1-dioxo-1,2-benzothiazol-3-yl)hydrazono]methyl]indolin-2-one [Ex 101]” the “Max Act. (%), TEAD-GAL4 Transactivation activity” value was 90%.
